Experimental data from US5959130A, “Castor based benzoate esters” (Finetex, Inc., priority 1997, dated 1999).

Columns and labels:
[1] = organoleptic evaluation of tactile characteristics on the forearm, Table VII; type: in vivo, individuals; conditions: rating, 1 = Worst 5 = Best
Protocol: The tactile characteristics of the novel benzoate esters of the invention were determined by applying the appropriate material, neat or as a dilution with another emollient ester, lanolin or […]. The properties were evaluated organoleptically after application to the interior surface of the forearm.

[2] = sunscreen solubility: Benzophenone-3, Table IV A; type: physicochemical
From the text: (§1) These two sunscreens are difficult to dissolve and keep in solution for use in sunscreen formulations for optimal SPF (sun-protection factors). Higher solvency for a sunscreen ingredient is desirable as it allows higher concentrations of the sunscreen active ingredient in a formulation. This advantageously raises the SPF ratings for the formulation. The liquid organic sunscreens that are commonly used are octyl-methoxy cinnamate (OMC) and octyl salicylate (OS).
(§2) Solubility/Solvency Tables IVA and IVB show the solubility and concentrations of the sunscreen ingredient in the novel esters of the invention compared to their precursor raw materials (non-benzoate esters).

[3] = sunscreen solubility: PARSOL 1789, Table IV B; type: physicochemical
From the text: as §1, §2

[4] = physical properties of benzoate esters compared to precursors, Table II; type: physicochemical
From the text: Absence of odor is an important factor in consumer acceptance of cosmetic and toiletry products.

[5] = Hagman readings (particle size), titanium dioxide dispersion, Table VI A; type: physicochemical; conditions: TiO2 50%
Protocol: The novel benzoate esters of the invention were tested for pigment and dye dispersing efficacy. Color pastes were prepared by dispersing dry pigment into the oil phase while hand stirring and then passing each mixture through a three roll mill six times, collecting a 16 oz. sample after each pass. The samples collected were subjected to particle size measurements.

[6] = viscosity readings of titanium dioxide dispersions, Table VI B; type: physicochemical; conditions: for Viscosity reading of dispersion: Brookfield LVT-D @ 12 RPM, TiO2 50%
[7] = 23° C., 10 gms sunscreen in 100 gms mixture
[8] = 30° C., 10 gms sunscreen in 100 gms mixture
[9] = 30° C., 15 gms sunscreen in 100 gms mixture
[10] = 23° C., 15 gms sunscreen in 100 gms mixture

| SMILES | GREASINESS/OILINESS [1] | OVERALL TACTILITY [1] | SPREADABILITY [1] | TACK [1] | Sunscreen solubility (Benzophenone-3) [2, 7] | Sunscreen solubility (Benzophenone-3) [2, 8] | Sunscreen solubility (Benzophenone-3) [2, 9] | Sunscreen solubility (Parsol 1789) [3, 7] | Sunscreen solubility (Parsol 1789) [3, 8] | Sunscreen solubility (Parsol 1789) [3, 9] | other results |
| --- | --- | --- | --- | --- | --- | --- | --- | --- | --- | --- | --- |
| CCCCCCC(CCCCCCCCCCC(=O)OCC(COC(=O)CCCCCCCCCCC(CCCCCC)OC(=O)c1ccccc1)OC(=O)CCCCCCCCCCC(CCCCCC)OC(=O)c1ccccc1)OC(=O)c1ccccc1 (centres unmarked) [BHCO, Benzoic acid ester of glyceryl-trihydroxy stearate] | 4 | 3 | 3 | 3 | – | – | – | – | – | – | – |
| CCCCCCC(O)CCCCCCCCCCC(=O)OCC(CC)CCCC (centres unmarked) [OHS, octyl hydroxystearate, reference compound] | – | – | – | – | + | + | + | + | + | + | – |
| CCCCCCC(CCCCCCCCCCC(=O)OCC(CC)CCCC)OC(=O)c1ccccc1 (centres unmarked) [BOHS, benzoic acid ester of 2 ethyl hexyl 12-hydroxy stearate] | 4 | 3 | 4 | 3 | + | + | + | + | + | + | S.G. (specific gravity) ([4]; 25° C.): 0.928; TITER ([4]; 25° C.): clear; VISCOSITY ([4]; Brookfield Viscometer, Spindle # 1, 10 rpm): 110 cps; Sunscreen solubility (Benzophenone-3) [2, 10]: +; Hagman reading (particle size) ([5]; pass 1): ≤ 20 μm; Hagman reading (particle size) ([5]; pass 2): ≤ 14 μm; Hagman reading (particle size) ([5]; pass 3): ≤ 14 μm; Hagman reading (particle size) ([5]; pass 4): ≤ 10 μm; Hagman reading (particle size) ([5]; pass 5): ≤ 9 μm; Hagman reading (particle size) ([5]; pass 6): ≤ 8 μm; Sunscreen solubility (Parsol 1789) [3, 10]: +; viscosity of TiO2 dispersions (in words) [6]: much lower viscosity; Viscosity reading of dispersion ([6]; pass 1): 1170 cps; Viscosity reading of dispersion ([6]; pass 2): 1170 cps; Viscosity reading of dispersion ([6]; pass 3): 1326 cps; Viscosity reading of dispersion ([6]; pass 4): 1326 cps; Viscosity reading of dispersion ([6]; pass 5): 1326 cps; Viscosity reading of dispersion ([6]; pass 6): 1326 cps |
